Test results as given in US20080039528A1, “Zinc finger ejectors and methods of use thereof” (KANSAS STATE UNIVERSITY RESEARCH FOUNDATION, priority 2004, published 2008).
Read-outs that look alike come from different tables or passages of the source.

Key:
P. falciparum D6 = assay: Inhibition of the growth of P. falciparum D6 clone ([3H]-hypoxanthine uptake); format: cell-based, Plasmodium falciparum; details: for inhibitory activities (in words): P. falciparum D6 and W2 and L. donovani parasites, summary statement; for IC50: read-out: D6, IC50; for IC90: read-out: D6, IC90
Procedure: (§1) Inhibition of the growth of P. falciparum. A reported method for the inhibition of the growth of P. falciparum was followed. The incubation period of the parasites was 66 h and the starting parasitemia was 0.2% with a 1% hematocrit. The medium used was RPMI-1640 culture medium with no folate or p-aminobenzoic acid and 10% normal heat-inactivated human plasma, and P. falciparum D6 and W2 clones were used. D6 is a clone from the Sierra I/UNC isolates and is susceptible to chloroquine and pyrimethamine but has reduced susceptibilities to mefloquine and halofantrine. W2 is a clone of the Indochina I isolate and is resistant to chloroquine and pyrimethamine but susceptible to mefloquine. […] The diluted compounds were transferred ([…]) to test plates, 200 µL of parasitized erythrocytes (0.2% parasitemia and 1% hematocrit) was added, and was incubated at 37° C. in a controlled environment of 5% CO2, 5% O2, and 90% N2. After 42 h, 25 µL of [^3H]-hypoxanthine was added and the plates were incubated for an additional 24 h. The plates were then frozen at −70° C. to lyse the red cells and later thawed and harvested onto glass fiber filter mats by using a 96-well cell harvester. The filter mats were counted in a scintillation counter and the data were downloaded with the custom, automated analysis software developed by WRAIR. For each compound, the concentration-response profile was determined and 50% inhibitory concentrations (IC50) were determined by using a nonlinear, logistic dose-response analysis program.

P. falciparum W2 = assay: Inhibition of the growth of P. falciparum W2 clone ([3H]-hypoxanthine uptake); format: cell-based, Plasmodium falciparum; details: for IC50: read-out: W2, IC50; for IC90: read-out: W2, IC90
Procedure: as §1

Solubility (qualitative) = format: physicochemical
[1] = system: L. donovani axenic amastigote-like parasites; assay: Inhibition of the growth of L. donovani axenic amastigotes (3-day CellTiter 96 assay); format: cell-based, Leishmania donovani; details: 3-day assay
Procedure: Inhibition of the growth of L. donovani parasites. A reported method for the inhibition of the growth of L. donovani parasites was followed. L. donovani axenic amastigotes were maintained in modified RPMI medium as previously described. Inhibition of growth by the compounds was measured in a 3-day assay using the tetrazolium dye-based CellTiter 96 Aqueous Non-Radioactive Cell Proliferation Assay Kit (Promega, Madison, Wis., USA) as previously described. The known anti-leishmaniasis drug, pentamidine, was used as a control.

[2] = Plasmodium falciparum, D6, 66 h, P. falciparum D6 intraerythrocytic forms, 66 h incubation
[3] = Plasmodium falciparum, W2, 66 h, P. falciparum W2 intraerythrocytic forms, 66 h incubation
[4] = P. falciparum D6 intraerythrocytic forms, 66 h incubation
[5] = P. falciparum W2 intraerythrocytic forms, 66 h incubation
[6] = Plasmodium falciparum, P. falciparum W2 intraerythrocytic forms, 66 h incubation
[7] = Plasmodium falciparum, D6, 66 h
[8] = Plasmodium falciparum, W2, 66 h

| SMILES | inhibitory activities (in words) (P. falciparum D6) | IC50 (P. falciparum D6; [2]) [µM] | IC50 (P. falciparum W2; [3]) [nM] | IC50 (P. falciparum D6; [4]) [µM] | IC50 (P. falciparum W2; [5]) [nM] | further results |
| --- | --- | --- | --- | --- | --- | --- |
| O=C(O)c1ccc(OC/C=C/COc2ccc(C(=O)O)cc2)cc1 [Biscarboxylic acid 8, trans-1,4-Bis-[4-(hydroxycarbonyl)phenoxy]-2-butene] | do not show inhibitory activities | > 60 | > 60000 |  |  |  |
| O=C([N-]O)c1ccc(OCCCCCOc2ccc(C(=O)[N-]O)cc2)cc1.[Na+].[Na+] [Bishydroxamic acid sodium salt 11, 1,5-Bis-[4-(hydroxy-sodio-aminocarbonyl)phenoxy]pentane] |  |  |  | 1 | 1090 | IC90 (P. falciparum D6; [4]): 2 µM; solubility in water (Solubility (qualitative)): soluble in water |
| COC(=O)c1ccc(OCCOCCOc2ccc(C(=O)OC)cc2)cc1 [Bisester 9, 2,2′-Bis-(4-methoxycarbonylphenoxy)ethyl ether] | do not show inhibitory activities |  |  | > 60 | > 60000 | IC50 [1]: > 100 µM |
| COC(=O)c1ccc(OCCCCCOc2ccc(C(=O)OC)cc2)cc1 [Bisester 5, 1,5-Bis-(4-methoxycarbonylphenoxy)pentane] | do not show inhibitory activities | > 60 | > 60000 |  |  |  |
| O=C(O)c1ccc(OCCCCCOc2ccc(C(=O)O)cc2)cc1 [Biscarboxylic acid 6, 1,5-Bis-[4-(hydroxycarbonyl)phenoxy]pentane] | do not show inhibitory activities | > 60 | > 60000 |  |  |  |
| O=C(NO)c1ccc(OCCCCCOc2ccc(C(=O)NO)cc2)cc1 [Bishydroxamic acid 1, 1,5-Bis-[4-(hydroxyaminocarbonyl)phenoxy]pentane] |  |  |  | 2.2 | 3200 | IC90 (P. falciparum D6; [4]): 6.2 µM |
| N=C(N)c1ccc(OCCCCCOc2ccc(C(=N)N)cc2)cc1 [Pentamidine, reference compound] |  |  |  |  |  | IC50 ([1]; Leishmania donovani, 72 h): 1.19 ± 0.12 µM |
| O=C(NO)c1ccc(OC/C=C/COc2ccc(C(=O)NO)cc2)cc1 [Bishydroxamic acid 2, trans-1,4-Bis[4-(hydroxyaminocarbonyl)phenoxy]-2-butene] |  | 0.69 | 1050 |  |  | IC90 (P. falciparum D6; [2]): 1.8 µM; IC90 (P. falciparum W2; [6]): 2.57 µM |
| COC(=O)c1ccc(OC/C=C/COc2ccc(C(=O)OC)cc2)cc1 [Bisester 7, trans-1,4-Bis-(4-methoxycarbonylphenoxy)-2-butene] | do not show inhibitory activities | > 60 | > 60000 |  |  |  |
| O=C(NO)c1ccc(OCCOCCOc2ccc(C(=O)NO)cc2)cc1 [Bishydroxamic acid 3, 2,2′-Bis-[(4-hydroxyaminocarbonyl)phenoxy]ethyl ether] |  |  |  | 0.24 | 350 | IC90 (P. falciparum D6; [4]): 0.47 µM; IC90 (P. falciparum W2; [5]): 0.6 µM; IC50 [1]: 18.5 ± 6 µM; solubility in DMSO (Solubility (qualitative); DMSO): soluble in DMSO; solubility in water (Solubility (qualitative)): only slightly soluble in water |
| O=C(O)c1ccc(OCCOCCOc2ccc(C(=O)O)cc2)cc1 [Biscarboxylic acid 10, 2,2′-Bis-[(4-hydroxycarbonyl)phenoxy]ethyl ether] | do not show inhibitory activities |  |  | > 38 | > 38000 | IC50 [1]: > 100 µM |
| CCN(CC)CCCC(C)Nc1ccnc2cc(Cl)ccc12 (centres unmarked) [Chloroquine, reference compound] |  |  |  |  |  | IC50 (P. falciparum D6; [7]): 0.013 µM; IC90 (P. falciparum D6; [7]): 0.014 µM; IC50 (P. falciparum W2; [8]): 450 nM; IC90 (P. falciparum W2; [8]): 0.65 µM |
| O=C([N-]O)c1ccc(OCCOCCOc2ccc(C(=O)[N-]O)cc2)cc1.[Na+].[Na+] [Bishydroxamic acid sodium salt 12, 2,2′-Bis-[(4-hydroxy-sodio-aminocarbonyl)phenoxy]ethyl ether] |  |  |  | 0.26 | 360 | IC90 (P. falciparum D6; [4]): 0.52 µM; IC90 (P. falciparum W2; [5]): 0.6 µM; IC50 [1]: 37.4 ± 14 µM; solubility in water (Solubility (qualitative)): soluble in water |
| OC(c1cc(C(F)(F)F)nc2c(C(F)(F)F)cccc12)C1CCCCN1 (centres unmarked) [Mefloquine, reference compound] |  | 0.013 |  |  |  | IC90 (P. falciparum D6; [2]): 0.24 µM; IC50 (P. falciparum W2; Plasmodium falciparum, W2, P. falciparum W2, value in nM): 8 nM; IC90 (P. falciparum W2; [6]): 0.015 µM |
